Reference: PMC12951562, “SH2scan: Mapping SH2 Domain-Ligand Binding Selectivity for Inhibitors and Degraders” (Journal of Medicinal Chemistry, 2026)
Non-standard residues stand in square brackets, D forms with d. Residues, ends and D or L forms follow the SMILES beside them. pY = N[C@@H](Cc1ccc(OP(=O)(O)O)cc1)C(=O)O

How the values were obtained:
Assay in all cases: biochemical
Assay type in all cases: binding
[1] = biological target: T1, DAPP1 (Homo sapiens, UniProt Q9UN19)
T1 construct: the DNA-tagged SH2 domain concentrations used in this study were <0.1 nM; made in house; host or cells: HEK293 (transient transfection; unpurified extract)
T1 sequence (Q9UN19 35-129 limits assumed): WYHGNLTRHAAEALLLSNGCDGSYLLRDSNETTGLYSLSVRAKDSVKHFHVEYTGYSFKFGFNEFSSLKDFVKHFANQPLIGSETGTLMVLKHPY

[2] = biological target: T2, SOCS4 (Homo sapiens, UniProt Q8WXH5)
T2 construct: made in house; host or cells: HEK293 (transient transfection), unpurified extract
T2 sequence (Q8WXH5 1-440): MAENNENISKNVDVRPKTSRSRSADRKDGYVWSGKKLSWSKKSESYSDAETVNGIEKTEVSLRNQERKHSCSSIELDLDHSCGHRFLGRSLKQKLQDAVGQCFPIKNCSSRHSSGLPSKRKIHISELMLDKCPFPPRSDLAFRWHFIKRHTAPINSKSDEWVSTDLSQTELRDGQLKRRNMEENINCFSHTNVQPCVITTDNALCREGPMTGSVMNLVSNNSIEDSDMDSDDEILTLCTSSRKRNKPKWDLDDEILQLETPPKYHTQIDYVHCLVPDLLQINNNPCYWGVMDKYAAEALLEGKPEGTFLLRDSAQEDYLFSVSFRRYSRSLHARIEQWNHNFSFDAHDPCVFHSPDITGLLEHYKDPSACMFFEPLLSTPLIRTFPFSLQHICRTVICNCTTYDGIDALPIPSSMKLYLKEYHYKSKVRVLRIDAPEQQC

[3] = biological target: T3, STAP1 (Homo sapiens, UniProt Q9ULZ2)
T3 construct: made in house; host or cells: HEK293 (transient transfection), unpurified extract
T3 sequence (Q9ULZ2 1-295): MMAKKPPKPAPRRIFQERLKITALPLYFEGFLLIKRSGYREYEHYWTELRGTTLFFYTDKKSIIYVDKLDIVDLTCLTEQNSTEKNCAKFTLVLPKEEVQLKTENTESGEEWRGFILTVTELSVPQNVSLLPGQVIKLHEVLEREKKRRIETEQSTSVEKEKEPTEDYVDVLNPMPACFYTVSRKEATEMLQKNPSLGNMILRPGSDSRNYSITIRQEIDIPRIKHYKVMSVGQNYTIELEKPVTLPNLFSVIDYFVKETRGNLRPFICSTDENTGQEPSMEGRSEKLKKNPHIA

[4] = biological target: T4, STAP2 (Homo sapiens, UniProt Q9UGK3)
T4 construct: made in house; host or cells: HEK293 (transient transfection), unpurified extract
T4 sequence (Q9UGK3 1-403): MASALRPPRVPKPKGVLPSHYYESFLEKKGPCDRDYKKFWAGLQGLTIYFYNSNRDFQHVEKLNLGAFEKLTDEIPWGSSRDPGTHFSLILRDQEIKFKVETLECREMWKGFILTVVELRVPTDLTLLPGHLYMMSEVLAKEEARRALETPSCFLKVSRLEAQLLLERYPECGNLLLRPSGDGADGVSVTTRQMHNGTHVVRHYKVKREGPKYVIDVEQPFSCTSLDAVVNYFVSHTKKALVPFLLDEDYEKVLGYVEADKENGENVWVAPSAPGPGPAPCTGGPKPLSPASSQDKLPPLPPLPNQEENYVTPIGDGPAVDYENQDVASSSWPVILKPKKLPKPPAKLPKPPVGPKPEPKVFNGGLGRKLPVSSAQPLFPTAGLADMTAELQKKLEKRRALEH

[5] = biological target: T5, PTPN6(SH2dom.C-term.) (Homo sapiens, UniProt P29350)
T5 construct: SH2dom.C-term. denotes SH2 domain closest to C-terminus of protein; made in house; host or cells: HEK293 (transient transfection, unpurified extract)
T5 sequence (P29350 110-213 limits assumed): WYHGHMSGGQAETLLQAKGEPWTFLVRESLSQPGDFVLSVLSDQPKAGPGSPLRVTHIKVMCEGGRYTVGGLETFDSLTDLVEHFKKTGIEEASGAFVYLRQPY

[6] = biological target: T6, RASA1(SH2dom.C-term.) (Homo sapiens, UniProt P20936)
T6 construct: SH2dom.C-term. denotes SH2 domain closest to C-terminus of protein; made in house; host or cells: HEK293 (transient transfection, unpurified extract)
T6 sequence (P20936 351-441 limits assumed): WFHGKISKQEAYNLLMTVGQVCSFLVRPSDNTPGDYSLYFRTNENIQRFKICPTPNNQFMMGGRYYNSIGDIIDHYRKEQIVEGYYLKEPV

[7] = biological target: T7, APS (SH2B2) (Homo sapiens, UniProt O14492)
T7 construct: the DNA-tagged SH2 domain concentrations used in this study were <0.1 nM; made in house; host or cells: HEK293 (transient transfection; unpurified extract)
T7 sequence (O14492 417-515 limits assumed): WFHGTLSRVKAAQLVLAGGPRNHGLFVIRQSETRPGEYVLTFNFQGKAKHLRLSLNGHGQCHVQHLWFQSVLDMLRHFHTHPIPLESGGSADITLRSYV

[8] = biological target: T8, BLNK (Homo sapiens, UniProt Q8WV28)
T8 construct: the DNA-tagged SH2 domain concentrations used in this study were <0.1 nM; made in house; host or cells: HEK293 (transient transfection; unpurified extract)
T8 sequence (Q8WV28 346-453 limits assumed): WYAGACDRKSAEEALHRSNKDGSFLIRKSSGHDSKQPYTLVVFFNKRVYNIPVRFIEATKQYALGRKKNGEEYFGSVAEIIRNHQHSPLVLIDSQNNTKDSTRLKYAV

[9] = biological target: T9, BRK (Homo sapiens, UniProt Q13882)
T9 construct: the DNA-tagged SH2 domain concentrations used in this study were <0.1 nM; made in house; host or cells: HEK293 (transient transfection; unpurified extract)
T9 sequence (Q13882 78-170 limits assumed): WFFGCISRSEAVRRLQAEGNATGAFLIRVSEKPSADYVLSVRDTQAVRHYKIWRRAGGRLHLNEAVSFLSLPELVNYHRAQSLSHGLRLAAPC

[10] = biological target: T10, GRB10 (Homo sapiens, UniProt Q13322)
T10 construct: the DNA-tagged SH2 domain concentrations used in this study were <0.1 nM; made in house; host or cells: HEK293 (transient transfection; unpurified extract)
T10 sequence (Q13322 493-574 limits assumed): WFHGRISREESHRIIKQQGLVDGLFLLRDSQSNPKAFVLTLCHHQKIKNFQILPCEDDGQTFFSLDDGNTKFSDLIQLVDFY

[11] = biological target: T11, ITK (Homo sapiens, UniProt Q08881)
T11 construct: the DNA-tagged SH2 domain concentrations used in this study were <0.1 nM; made in house; host or cells: HEK293 (transient transfection, unpurified extract)
T11 sequence (Q08881 239-338 limits assumed): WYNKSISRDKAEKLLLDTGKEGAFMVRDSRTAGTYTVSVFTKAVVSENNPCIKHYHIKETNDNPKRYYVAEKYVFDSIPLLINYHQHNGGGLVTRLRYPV

[12] = biological target: T12, MIST (Homo sapiens, UniProt Q7Z7G1)
T12 construct: the DNA-tagged SH2 domain concentrations used in this study were <0.1 nM; made in house; host or cells: HEK293 (transient transfection, unpurified extract)
T12 sequence (Q7Z7G1 309-419 limits assumed): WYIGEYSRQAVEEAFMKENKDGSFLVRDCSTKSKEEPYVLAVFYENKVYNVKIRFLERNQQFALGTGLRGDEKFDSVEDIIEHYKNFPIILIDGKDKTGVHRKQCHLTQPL

[13] = biological target: T13, SLP76 (Homo sapiens, UniProt Q13094)
T13 construct: made in house; host or cells: HEK293 (transient transfection), unpurified extract
T13 sequence (Q13094 1-533): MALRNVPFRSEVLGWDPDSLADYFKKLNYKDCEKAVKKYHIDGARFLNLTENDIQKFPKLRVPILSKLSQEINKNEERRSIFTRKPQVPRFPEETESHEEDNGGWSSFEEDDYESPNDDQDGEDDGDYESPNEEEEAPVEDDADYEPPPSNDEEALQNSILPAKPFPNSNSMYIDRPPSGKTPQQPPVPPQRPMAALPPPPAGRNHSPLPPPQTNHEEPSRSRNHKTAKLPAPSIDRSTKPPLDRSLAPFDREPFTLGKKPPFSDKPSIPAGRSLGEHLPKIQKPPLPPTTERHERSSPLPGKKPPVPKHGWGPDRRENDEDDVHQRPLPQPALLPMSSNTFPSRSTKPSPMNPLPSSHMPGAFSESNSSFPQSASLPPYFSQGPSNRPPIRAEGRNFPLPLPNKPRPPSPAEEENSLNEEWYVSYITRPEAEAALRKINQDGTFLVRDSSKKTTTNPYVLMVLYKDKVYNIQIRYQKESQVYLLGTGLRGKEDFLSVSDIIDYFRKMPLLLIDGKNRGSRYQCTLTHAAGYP

CC(=O)N[C@@H](CC(C)C)C(=O)N[C@@H](CC(C)C)C(=O)N1CCC[C@H]1C(=O)N[C@@H](CC(C)C)C(=O)N[C@@H](CC(=O)O)C(=O)N[C@@H](CCCCN)C(=O)N[C@@H](CC(=O)O)C(=O)N[C@@H](Cc1ccc(OP(=O)(O)O)cc1)C(=O)N[C@@H](Cc1ccc(OP(=O)(O)O)cc1)C(=O)N[C@H](C(=O)N[C@H](C(=O)N[C@@H](CCCNC(=N)N)C(=O)N[C@@H](CCC(=O)O)C(=O)N1CCC[C@H]1C(=O)NCC(=O)N[C@@H](CCC(N)=O)C(N)=O)C(C)C)C(C)C was tested, and the Kd [1] was 41300 ± 5960 nM and the Kd [2] was 1.91 ± 0.5 nM.
For CC[C@H](C)[C@H](NC(=O)[C@H](CC(C)C)NC(=O)[C@@H](NC(=O)[C@H](CC(N)=O)NC(=O)[C@H](CCC(=O)O)NC(=O)[C@H](Cc1ccc(OP(=O)(O)O)cc1)NC(=O)[C@H](CO)NC(=O)[C@H](CC(N)=O)NC(=O)[C@H](C)NC(C)=O)C(C)C)C(=O)N[C@@H](C)C(=O)N[C@@H](CCCCN)C(N)=O (Ac-ANS[pY]ENVLIAK-NH2), the Kd [3] was 2780 ± 615 nM and the Kd [4] was 38900 ± 7930 nM.
Compound CC[C@H](C)[C@H](NC(=O)[C@H](CCC(=O)O)NC(=O)[C@H](CCC(N)=O)NC(=O)[C@H](CCC(=O)O)NC(=O)[C@@H](NC(=O)[C@H](C)NC(C)=O)[C@@H](C)O)C(=O)N[C@H](C(=O)N[C@@H](Cc1ccc(OP(=O)(O)O)cc1)C(=O)N[C@@H](C)C(=O)N[C@@H](CCC(=O)O)C(=O)N[C@@H](CC(C)C)C(=O)N[C@@H](CC(N)=O)C(=O)N[C@@H](CC(C)C)C(=O)N[C@@H](CCC(N)=O)C(=O)N[C@@H](CCCCN)C(N)=O)[C@@H](C)O (Ac-ATEQEIT[pY]AELNLQK-NH2) has a Kd [5] of 1490 ± 666 nM.
CSCC[C@H](NC(=O)[C@@H]1CCCN1C(=O)[C@H](CCC(=O)O)NC(=O)[C@H](C)NC(=O)[C@H](Cc1ccc(OP(=O)(O)O)cc1)NC(=O)[C@H](CC(=O)O)NC(=O)[C@H](CO)NC(=O)[C@@H]1CCCN1C(=O)[C@H](CC(=O)O)NC(=O)[C@H](Cc1ccccc1)NC(=O)CNC(C)=O)C(=O)N[C@@H](CC(=O)O)C(=O)N[C@@H](C)C(=O)N[C@H](C(=O)N[C@H](C(N)=O)C(C)C)C(C)C (Ac-GFDPSD[pY]AEPMDAVV-NH2) was tested, and the Kd [6] was 4.11 ± 0.48 nM.
CC(=O)N[C@@H](CC(=O)O)C(=O)N[C@@H](CC(=O)O)C(=O)N[C@@H](CC(=O)O)C(=O)N[C@@H](Cc1ccc(OP(=O)(O)O)cc1)C(=O)N[C@@H](CC(=O)O)C(=O)N[C@@H](CC(=O)O)C(=O)N[C@H](C(=O)N[C@@H](CC(=O)O)C(N)=O)C(C)C [Ac-DDDpYDDVD-NH2] (Ac-DDD[pY]DDVD-NH2) was tested, and the Kd [7] was 8780 ± 971 nM, the Kd [8] was 137 ± 22.4 nM and the Kd [9] was 226 ± 200 nM. It also gave a Kd [10] of 1260 ± 1160 nM, a Kd [11] of 1450 ± 153 nM and a Kd [12] of 32.9 ± 6.7 nM. The Kd [13] was 1410 ± 432 nM.
